Reference: patent US12024531B2, “Immunoproteasome inhibitors” (Principia Biopharma Inc., priority 2017, dated 2024)
pIC50: −log10 of the molar value.

Key:
PBMC LMP2 [1] = target: T1, PBMC LMP2 (Homo sapiens, UniProt P28065); assay: Inhibition of proteasome activity in cells (Proteasome-Glo), PBMC/LMP2; type: cell-based; settings: 2 h incubation at 37° C.
Procedure: (§1) The cell-based effects of a compound described herein on the immunoproteasome were determined by measuring inhibition of proteasome activity in cells using the Proteasome-Glo™ Cell-Based Reagent (Promega, Madison WI). The Proteasome-Glo™ assay contains a specific luminogenic proteasome substrate in a buffer optimized for cell permeabilization, proteasome activity, and luciferase activity. For the chymotrypsin-like activity (LMP7 and 05c), the peptide substrate is Suc-LLVY-aminoluciferin (Succinyl-leucine-leucine-valine-tyrosine-aminoluciferin). Cleavage of the substrate by proteasome results in luminescent signal which is proportional to the proteasome activity. The cell line THP-1 (a monocytic leukemia cell line enriched in immunoproteasome), the cell line HT-29 (a colorectal adenocarcinoma cell line enriched in constitutive proteasome), and primary human peripheral blood mononuclear cells (PBMC) were used to assess proteasome activity. Cells were seeded in a 96-well plate at 10,000 cells per well in RPMI 1640 high glucose medium with 10% fetal bovine serum (FBS). Compound dilutions were added to cells starting at a concentration of 5 uM and decreasing in tripling dilutions. The final DMSO concentration was 1%. The concentration range was adjusted as needed for compounds of different potencies. The cells treated with compounds were incubated for 2 h at 37° C. in 5% CO2. At the end of the 2 hour incubation period, cells were transferred to white 384 well assay plates. 20 uL of Proteasome-Glo™ Reagent was added to each well and incubated for 10 minutes at rt. The plate was read in the Analyst HT instrument (Molecular Devices, Sunnyvale, CA) using luminescence mode. The percent inhibition of activity was plotted as a function of log compound concentration. The IC50 was then calculated for each compound using Prism software from GraphPad Software Inc. (San Diego, CA).

PBMC LMP7 [2] = target: T2, PBMC LMP7 (Homo sapiens, UniProt P28062); assay: Inhibition of proteasome activity in cells (Proteasome-Glo), PBMC/LMP7; type: cell-based; settings: 2 h incubation at 37° C.
Procedure: as §1

PBMC LMP7 [3] = target: T2, PBMC LMP7; assay: Durability of binding in cells (wash-out, Proteasome-Glo), PBMC LMP7; type: cell-based
Procedure: (§2) The durability of binding of proteasome inhibitors was assessed in cells using wash-out assays and the Proteasome-Glo™ Reagent kit. THP-1 cells, HT-29 cells, or PBMC were incubated with an 8-fold dilution series of inhibitor for 2 h. Following 2 h of incubation, cells were washed using 3 occasions of centrifugation followed by resuspension in culture medium. Following inhibitor washout, cells were returned to culture for either 30 minutes, 4 h, or 18 h. Cells were then transferred to white 384 plates, and 20 uL of Proteasome-Glo™ Reagent was added to each well for 10 minutes. Plates were then read on an Analyst HT plate reader using luminescence mode. The percent inhibition of activity was plotted as a function of log compound concentration. The IC50 was then calculated for each compound using Prism software from GraphPad.

[4] = target: immunoproteasome LMP2 subunit (Homo sapiens, UniProt P28065); assay: Caliper-based proteasome enzymatic activity assay, LMP2; type: biochemical; settings: human recombinant immunoproteasome 0.3 nM, FAM peptide substrate 1 μM, rt 2 h
HT29 β5c [5] = target: T3, HT29 β5c (Homo sapiens, UniProt P28074); assay: Inhibition of proteasome activity in cells (Proteasome-Glo), HT29/β5c; type: cell-based; settings: HT-29 cells, 2 h incubation at 37° C.
Procedure: as §1, with “Compound dilutions were added to cells starting at a concentration of 5 uM and decreasing in tripling dilutions. The final DMSO concentration was 1%. The concentration range was adjusted as needed for compounds of different potencies. The cells treated with compounds were incubated for 2 h at 37° C. in 5% CO2. At the end of the 2 hour incubation period, cells were transferred to white 384 well assay plates. 20 uL of Proteasome-Glo™ Reagent was added to each well and incubated for 10 minutes at rt.” left out, “The percent inhibition of activity was plotted as a function of log compound concentration.” left out

HT29 β5c [6] = target: T3, HT29 β5c; assay: Durability of binding in cells (wash-out, Proteasome-Glo), HT29 β5c; type: cell-based
Procedure: as §2

[7] = target: constitutive proteasome β5c subunit (Homo sapiens, UniProt P28074); assay: Caliper-based proteasome enzymatic activity assay, β5c; type: biochemical; settings: human recombinant constitutive proteasome 0.3 nM, FAM peptide substrate 1 μM, rt 3 h
PBMC LMP2 [8] = target: T1, PBMC LMP2; assay: Durability of binding in cells (wash-out, Proteasome-Glo), PBMC LMP2; type: cell-based
Procedure: as §2

[9] = target: immunoproteasome LMP7/B5i subunit (Homo sapiens, UniProt P28062); assay: Caliper-based proteasome enzymatic activity assay, LMP7; type: biochemical; settings: human recombinant immunoproteasome 0.3 nM, FAM peptide substrate 1 μM, rt 3 h
[10] = tested on: multiple myeloma cell lines and primary patient tumor cells; settings: cited from earlier work
[11] = tested on: murine collagen-induced arthritis; settings: mouse, in vivo; cited from earlier work
[12] = tested on: production of proinflammatory cytokines (IL-6, TNF-α, IL-23); settings: cited from earlier work
[13] = tested on: murine DSS-induced colitis model; settings: cited from earlier work
[14] = tested on: Hashimoto's thyroiditis model; settings: mouse, in vivo; cited from earlier work
MRL/lpr lupus model = settings: cited from earlier work
Th1/17 differentiation = settings: cited from earlier work
prostate PC-3 cell line = settings: cited from earlier work
tumor growth = settings: mouse; cited from earlier work

SMILES | pIC50 (PBMC LMP2 [1]) | pIC50 (PBMC LMP7 [2]) | pIC50 [4] | pIC50 [7] | pIC50 [9] | other results
CC(C)(C)NC(=O)C(C#N)=Cc1cccc(OCCC(=O)N[C@@H](Cc2ccccc2)B(O)O)c1 [Example 2, (R)-(1-(3-(3-(3-(tert-butylamino)-2-cyano-3-oxoprop-1-en-1-yl)phenoxy)propanamido)-2-phenylethyl)boronic Acid] | 5.42 | 8.30 | 6.80 | 7.18 | 8.52 | pIC50 (PBMC LMP7 [3]; 30 min after inhibitor washout): 8.30; pIC50 (PBMC LMP7 [3]; 4 hr after inhibitor washout): 8.00; pIC50 (PBMC LMP7 [3]; 18 hr after inhibitor washout): 6.90; pIC50 (HT29 β5c [5]): 7.14; pIC50 (HT29 β5c [6]; 30 min after inhibitor washout): 6.96; pIC50 (HT29 β5c [6]; 4 hr after inhibitor washout): < 5.30; pIC50 (HT29 β5c [6]; 18 hr after inhibitor washout): < 5.30; pIC50 (PBMC LMP2 [8]; 4 hr after inhibitor washout): < 5.30; pIC50 (PBMC LMP2 [8]; 18 hr after inhibitor washout): < 5.30
CN(C)C(=O)C(C#N)=Cc1cccc(CCOC(=O)N[C@@H](Cc2ccccc2)B(O)O)c1 [Example 17, (R)-(1-(((3-(2-cyano-3-(dimethylamino)-3-oxoprop-1-en-1-yl)phenethoxy)carbonyl)amino)-2-phenylethyl)boronic Acid] | < 5.30 | 8.05 | < 5.30 | 5.88 | 8.10 | 
CN1CCN(C(=O)C(C#N)=Cc2cccc(OCCC(=O)N[C@@H](Cc3ccccc3)B(O)O)c2)CC1 [Example 19, (R)-(1-(3-(3-(2-cyano-3-(4-methylpiperazin-1-yl)-3-oxoprop-1-en-1-yl)phenoxy)propanamido)-2-phenylethyl)boronic Acid] | < 5.30 | 7.17 | 6.77 | 7.37 | 7.96 | 
CNC(=O)C(C#N)=Cc1cccc(OCCC(=O)N[C@@H](Cc2ccccc2)B(O)O)c1 [Example 20, (R)-(1-(3-(3-(2-cyano-3-(methylamino)-3-oxoprop-1-en-1-yl)phenoxy)propanamido)-2-phenylethyl)boronic Acid] | < 5.30 | 7.47 | 6.92 | 7.49 | 8.52 | 
CC1=C(C(=O)N[C@H](C)C(=O)N[C@@H](Cc2c[nH]c3ccccc23)C(=O)N[C@@H](Cc2ccccc2)C(=O)[C@@]2(C)CO2)Cc2ccccc21 [PR-924] |  |  |  |  |  | growth of multiple myeloma cell lines and primary patient tumor cells [10]: inhibit growth
COc1ccc(C[C@H](NC(=O)[C@H](C)NC(=O)CN2CCOCC2)C(=O)N[C@@H](Cc2ccccc2)C(=O)[C@@]2(C)CO2)cc1 [PR-957] |  |  |  |  |  | disease activity in murine collagen-induced arthritis [11]: significantly inhibit disease activity; B cell effector functions and production of proinflammatory cytokines (IL-6, TNF-α, IL-23) [12]: potently block; inflammation and tissue destruction [13]: reduced inflammation and tissue destruction; efficacy in autoantibody-driven Hashimoto's thyroiditis model [14]: efficacious; plasma cell numbers and anti-dsDNA IgG levels (MRL/lpr lupus model): reduced plasma cell numbers and anti-dsDNA IgG levels; human and mouse Th1/17 differentiation (Th1/17 differentiation): potently block
CCCCCCC(=O)N[C@@H](C)C(=O)N[C@@H](CC(C)C)C(=O)[C@@]1(CO[Si](C)(C)C(C)(C)C)CO1 [UK-101] |  |  |  |  |  | apoptosis of prostate PC-3 cell line in vitro (prostate PC-3 cell line): induced apoptosis; tumor growth in vivo (tumor growth): significantly suppressed tumor growth
